The values that follow come from patent publication US8114991B2, “Amino-1,3,5-triazines N-substituted with chiral bicyclic radicals, process for their preparation, compositions thereof, and their use as herbicides and plant growth regulators” (Bayer Cropscience AG, priority 2003, dated 2012).

In series [1] the test system is harmful plants such as Sinapis alba, Echinochloa crus-galli, Lolium multiflorum, Stellaria media, Cyperus iria, Amaranthus retroflexus, Setaria viridis, Avena …. Kind of series: Post-emergence effect on weeds (greenhouse pot test). The class given is in vivo. Conditions: application rate of 2 kg or less of active ingredient per hectare; treated in the three-leaf stage; scored after approx. 3 to 4 weeks by comparison with untreated controls.

Series [2] has as its system harmful plants such as Stellaria media, Lolium multiforum, Amaranthus retroflexus, Sinapis alba, Avena sativa and Setaria viridis. Kind of series: Pre-emergence effect on weeds (greenhouse pot test). The class given is in vivo. The following applies: application rate of 1 kg or less of active ingredient per hectare; scored after 3 to 4 weeks by comparison with untreated controls. The method in brief: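 Seeds or rhizome pieces sown in sandy loam; test compounds (wettable powder or emulsion concentrate) applied pre-emergence to soil surface as aqueous suspension/emulsion at various dosages, 600 to 800 l water/ha. Greenhouse; plant/emergence damage scored visually after 3 to 4 weeks versus untreated controls.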

For the compound `C[C@@H](F)c1nc(N)nc(N[C@@H]2CCOc3ccccc32)n1` [Compound 1.20, 2-Amino-4-[(4R)4-chromanylamino]-6-[(1R)-1-fluoroethyl]-1,3,5-triazine], the melting point (commonly the temperature, or range, at which the solid turns liquid) is 110 to 112 °C. Besides, in series [1], the “herbicidal post-emergence activity against harmful plants (scored visually)” value (from here on “herbicidal post-emergence activity”) is recorded as “very good herbicidal post-emergence activity”. Moreover, the “pre-emergence control of harmful plants (plant or emergence damage scored visually)” value (“pre-emergence control of harmful plants” for short) in series [2] was “very good pre-emergence control”.

For `C[C@@H](F)c1nc(N)nc(N[C@H]2c3ccccc3C[C@@H]2C)n1` [Compound 2.1, 2-Amino-4-[(1R,2S)-2-methyl-1-indanylamino]-6-[(1R)-1-fluoroethyl]-1,3,5-triazine], the melting point lay in the range of 146 to 150 °C. Also, in series [1], the “herbicidal post-emergence activity” value is recorded as “very good herbicidal post-emergence activity”. Moreover, the “pre-emergence control of harmful plants” value in series [2] is recorded as “very good pre-emergence control”.

The compound `Cc1nc(N)nc(N[C@@H]2CCc3ccccc32)n1` [Compound 8.1, 2-Amino-4-[(1R)-1-indanylamino]-6-methyl-1,3,5-triazine] came in with a melting point of 94 to 96 °C. In series [1], the “herbicidal post-emergence activity” value is reported as “very good herbicidal post-emergence activity”. The “pre-emergence control of harmful plants” value in series [2] is listed as “very good pre-emergence control”.

For the compound `COCc1nc(N)nc(N[C@@H]2CCCc3c(C)cc(C)cc32)n1` [Compound 8.253], the “herbicidal post-emergence activity” value in series [1] is listed as “very good herbicidal post-emergence activity”. Also, in series [2], the “pre-emergence control of harmful plants” value is “very good pre-emergence control”.

Turning to `Nc1nc(N[C@@H]2CCCc3ccccc32)nc(C(F)(F)F)n1` [Compound 8.254], the “herbicidal post-emergence activity” value in series [1] is listed as “very good herbicidal post-emergence activity”. For the same compound, the “pre-emergence control of harmful plants” value in series [2] is “very good pre-emergence control”.

On to `N#CCc1nc(N)nc(N[C@@H]2CCCc3ccccc32)n1` [Compound 8.255], for which the “herbicidal post-emergence activity” value in series [1] was “very good herbicidal post-emergence activity”. Further, the “pre-emergence control of harmful plants” value in series [2] was “very good pre-emergence control”.

On to `Nc1nc(N[C@@H]2CCCc3ccccc32)nc(C(F)F)n1` [Compound 8.256], for which, in series [1], the “herbicidal post-emergence activity” value is “very good herbicidal post-emergence activity”. For the same compound, the “pre-emergence control of harmful plants” value in series [2] was “very good pre-emergence control”.

Regarding `CCCCc1nc(N)nc(N[C@@H]2CCCc3ccc(CC)cc32)n1` [Compound 8.257], the “herbicidal post-emergence activity” value in series [1] is recorded as “very good herbicidal post-emergence activity”. The “pre-emergence control of harmful plants” value in series [2] is “very good pre-emergence control”.

As to `CCC(F)c1nc(N)nc(N[C@H]2c3cc(C)ccc3C[C@@H]2C)n1` (stereo partly drawn) [Compound 9.37], in series [1], the “herbicidal post-emergence activity” value is listed as “very good herbicidal post-emergence activity”. In addition, in series [2], the “pre-emergence control of harmful plants” value is reported as “very good pre-emergence control”.

Turning to `CCCCc1nc(N)nc(N[C@H]2c3cc(C)ccc3C[C@@H]2C)n1` [Compound 9.66], the “herbicidal post-emergence activity” value in series [1] was “very good herbicidal post-emergence activity”. The “pre-emergence control of harmful plants” value in series [2] is reported as “very good pre-emergence control”.

Consider `Cc1ccc2c(c1)[C@H](Nc1nc(N)nc(C(C)F)n1)CC2` (stereo partly drawn) [Compound 10.2], for which the “herbicidal post-emergence activity” value in series [1] is given as “very good herbicidal post-emergence activity”. For the same compound, in series [2], the “pre-emergence control of harmful plants” value is reported as “very good pre-emergence control”.

With `CCC(F)c1nc(N)nc(N[C@@H]2CCc3ccc(C)cc32)n1` (stereo partly drawn) [Compound 10.37], in series [1], the “herbicidal post-emergence activity” value is listed as “very good herbicidal post-emergence activity”. Further, the “pre-emergence control of harmful plants” value in series [2] was “very good pre-emergence control”.

Consider `CCC(F)c1nc(N)nc(N[C@@H]2CCCc3ccc(C)cc32)n1` (stereo partly drawn) [Compound 10.47], for which the “herbicidal post-emergence activity” value in series [1] was “very good herbicidal post-emergence activity”. Also, the “pre-emergence control of harmful plants” value in series [2] is “very good pre-emergence control”.

With `CCC(F)c1nc(N)nc(N[C@@H]2CCOc3ccc(C)cc32)n1` (stereo partly drawn) [Compound 10.57], the “herbicidal post-emergence activity” value in series [1] is reported as “very good herbicidal post-emergence activity”. Besides, the “pre-emergence control of harmful plants” value in series [2] is listed as “very good pre-emergence control”.

On to `CCCC(F)c1nc(N)nc(N[C@@H]2CCCc3ccc(C)cc32)n1` (stereo partly drawn) [Compound 10.66], for which the “herbicidal post-emergence activity” value in series [1] is “very good herbicidal post-emergence activity”. Moreover, the “pre-emergence control of harmful plants” value in series [2] is reported as “very good pre-emergence control”.
